By IC50 is commonly meant the point on the concentration scale where inhibition reaches its midpoint. In general, inhibition refers to the drop in the measured response relative to a control, in per cent.

These results are taken from patent US10865208B2, “ATG7 inhibitors and the uses thereof” (Millennium Pharmaceuticals, Inc., priority 2016, dated 2020).

This test concerns the target recombinant human His-ATG7 enzyme (Homo sapiens (Human), UniProt O95352). As to the kind of experiment: ATG7 Enzyme Assay (HTRF/FRET, ATG3-GST and Flag-Gabarap). Type of test: biochemical. Conditions: for inhibition at 0.111 µM: Concentration 0.111 μM; for inhibition at 0.111 µM / inhibition at 0.123 µM: read-out: Percent Inhibition; for inhibition at 0.123 µM: Concentration 0.123 μM. The protocol: Example 97: ATG7 Enzyme Assay
The total volume of the ATG7 enzymatic assay is 50 μL and contains 50 mM HEPES Hemisodium (pH 7.5), 0.05% BSA, 0.01% Tween-20, 25 mM NaCl, 5 mM MgCl2, 10 μM ATP, 250 μM GSH, 5 nM ATG3-GST, 5 nM Flag-Gabarap, 100 μM TCEP and 0.15 nM recombinant human His-ATG7 enzyme. The enzymatic reaction mixture, with and without inhibitor, was incubated at 24° C. for 105 min in a 384-well plate before termination with […] of Stop/Detection buffer (0.1M HEPES Hemisodium pH 7.5, 0.05% Tween20, 20 mM EDTA, 410 mM KF, 0.53 nM Europium-Cryptate labeled monoclonal anti-Flag M2 Antibody (CisBio International) and 8.125 μg/ml PHYCOLINK goat anti-GST allophycocyanin (XL-APC) antibody (Prozyme)). After incubation for 2 hours at 24° C., quantification of FRET is performed on the Pherostar™ (BMG Labtech). Percentage inhibition values at a single concentration or enzyme inhibition (IC50) values are determined from those curves. One skilled in the art will appreciate that the values generated either as percentage inhibition at a single concentration or IC50 values are subject to experimental variation.
For orientation: Time-resolved FRET reads energy transfer from a long-lived donor to a nearby acceptor.

Sequence of recombinant human His-ATG7 enzyme (O95352 whole entry): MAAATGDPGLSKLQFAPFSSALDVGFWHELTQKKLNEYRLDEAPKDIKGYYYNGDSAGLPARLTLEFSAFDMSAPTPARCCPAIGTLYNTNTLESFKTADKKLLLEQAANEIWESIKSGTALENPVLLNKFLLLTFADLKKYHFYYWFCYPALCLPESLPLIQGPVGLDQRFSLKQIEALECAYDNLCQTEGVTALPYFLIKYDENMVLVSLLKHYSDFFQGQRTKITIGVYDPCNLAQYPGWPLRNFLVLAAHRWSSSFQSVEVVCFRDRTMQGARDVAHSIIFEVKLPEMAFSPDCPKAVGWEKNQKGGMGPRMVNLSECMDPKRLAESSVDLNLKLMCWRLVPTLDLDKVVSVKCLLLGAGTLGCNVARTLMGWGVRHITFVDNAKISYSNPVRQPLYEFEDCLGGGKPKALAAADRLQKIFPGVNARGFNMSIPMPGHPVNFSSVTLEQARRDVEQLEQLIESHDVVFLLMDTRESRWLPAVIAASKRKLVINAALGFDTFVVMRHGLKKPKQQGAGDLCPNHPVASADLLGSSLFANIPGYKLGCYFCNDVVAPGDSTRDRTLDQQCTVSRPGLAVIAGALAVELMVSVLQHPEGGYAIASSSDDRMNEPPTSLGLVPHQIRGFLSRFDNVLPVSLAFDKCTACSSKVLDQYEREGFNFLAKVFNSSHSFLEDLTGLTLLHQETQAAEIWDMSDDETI

As for `Cc1occc1Sc1nn([C@@H]2O[C@H](COS(N)(=O)=O)[C@@H](O)[C@@H]2F)c2ncnc(N)c12` [Compound I-100, [(2R,3R,4S,5R)-5-{4-amino-3-[(2-methyl-3-furyl)sulfanyl]-1H-pyrazolo[3,4-d]pyrimidin-1-yl}-4-fluoro-3-hydroxytetrahydrofuran-2-yl]methyl sulfamate], the IC50 lay in the range of 0.1 to 0.5 µM and the inhibition at 0.111 µM was 50%.
Consider `Nc1ncnc2c1c(SCCO)nn2[C@@H]1O[C@H](COS(N)(=O)=O)[C@@H](O)[C@H]1O` [Compound I-46, [(2R,3S,4R,5R)-5-{4-amino-3-[(2-hydroxyethyl)sulfanyl]-1H-pyrazolo[3,4-d]pyrimidin-1-yl}-3,4-dihydroxytetrahydrofuran-2-yl]methyl sulfamate], for which the IC50 was below 0.02 µM and the inhibition at 0.123 µM came to 88%.
With `Nc1ncnc2c1c(SC1CNC1)nn2[C@@H]1O[C@H](COS(N)(=O)=O)[C@@H](O)[C@H]1O` [Compound I-72, {(2R,3S,4R,5R)-5-[4-amino-3-(azetidin-3-ylsulfanyl)-1H-pyrazolo[3,4-d]pyrimidin-1-yl]-3,4-dihydroxytetrahydrofuran-2-yl}methyl sulfamate], the 50% inhibitory concentration (IC50) lay in the range of 0.05 to 0.1 µM and the inhibition at 0.123 µM amounted to 65%.
As for `Nc1ncnc2c1c(SC1CC1)nn2[C@H]1C[C@H](O)[C@@H](COS(N)(=O)=O)O1` [Compound I-167, {(2R,3S,5R)-5-[4-amino-3-(cyclopropylsulfanyl)-1H-pyrazolo[3,4-d]pyrimidin-1-yl]-3-hydroxytetrahydrofuran-2-yl}methyl sulfamate], the IC50 was in the range of 0.05 to 0.1 µM and the inhibition at 0.111 µM came to 68%.
Consider `Nc1ncnc2c1c(SC1CCCCC1O)nn2[C@@H]1O[C@H](COS(N)(=O)=O)[C@@H](O)[C@H]1O` (mixture of isomers) [Compound I-47, [(2R,3S,4R,5R)-5-(4-amino-3-{[(1R,2R)-2-hydroxycyclohexyl]sulfanyl}-1H-pyrazolo[3,4-d]pyrimidin-1-yl)-3,4-dihydroxytetrahydrofuran-2-yl]methyl Sulfamate and [(2R,3S,4R,5R)-5-(4-amino-3-{[(1S,2S)-2-hydroxycyclohexyl]sulfanyl}-1H-pyrazolo[3,4-d]pyrimidin-1-yl)-3,4-dihydroxytetrahydrofuran-2-yl]methyl Sulfamate], for which the IC50 is 0.1 to 0.5 µM and the inhibition at 0.123 µM is 48%.
On to `Nc1ncnc2c1c(Sc1ccc3ccccc3n1)nn2[C@H]1C[C@H](O)[C@@H](COS(N)(=O)=O)O1` [Compound I-183, {(2R,3S,5R)-5-[4-amino-3-(quinolin-2-ylsulfanyl)-1H-pyrazolo[3,4-d]pyrimidin-1-yl]-3-hydroxytetrahydrofuran-2-yl}methyl sulfamate], for which the IC50 lay within 0.1 to 0.5 µM and the inhibition at 0.111 µM was 28%.
Turning to `Cc1ccccc1CSc1nn([C@@H]2O[C@H](COS(N)(=O)=O)[C@@H](O)[C@H]2O)c2ncnc(N)c12` [Compound I-39, [(2R,3S,4R,5R)-5-{4-amino-3-[(2-methylbenzyl)sulfanyl]-1H-pyrazolo[3,4-d]pyrimidin-1-yl}-3,4-dihydroxytetrahydrofuran-2-yl]methyl sulfamate], the half-maximal inhibitory concentration (IC50) was 0.02 to 0.05 µM and the inhibition at 0.123 µM was found to be 75%.
Regarding `N#CCSc1nn([C@H]2C[C@H](O)[C@@H](COS(N)(=O)=O)O2)c2ncnc(N)c12` [Compound I-188, [(2R,3S,5R)-5-{4-amino-3-[(cyanomethyl)sulfanyl]-1H-pyrazolo[3,4-d]pyrimidin-1-yl}-3-hydroxytetrahydrofuran-2-yl]methyl sulfamate], the IC50 was in the range of 0.1 to 0.5 µM and the inhibition at 0.111 µM came to 37%.
With `N#CCSc1nn([C@@H]2O[C@H](COS(N)(=O)=O)[C@@H](O)[C@H]2O)c2ncnc(N)c12` [Compound I-90, [(2R,3S,4R,5R)-5-{4-amino-3-[(cyanomethyl)sulfanyl]-1H-pyrazolo[3,4-d]pyrimidin-1-yl}-3,4-dihydroxytetrahydrofuran-2-yl]methyl sulfamate], the half-maximal inhibitory concentration (IC50) fell in the range of 0.02 to 0.05 µM and the inhibition at 0.123 µM was 84%.
For the compound `Nc1ncnc2c1c(Sc1ccc(Cl)cn1)nn2[C@H]1C[C@H](O)[C@H](COS(N)(=O)=O)O1` [Compound I-222, [(2S,3S,5R)-5-{4-amino-3-[(5-chloropyridin-2-yl)sulfanyl]-1H-pyrazolo[3,4-d]pyrimidin-1-yl}-3-hydroxytetrahydrofuran-2-yl]methyl sulfamate], the IC50 fell in the range of 0.05 to 0.1 µM and the inhibition at 0.111 µM was found to be 59%.
Turning to `COCc1nn([C@@H]2O[C@H](COS(N)(=O)=O)[C@@H](O)[C@H]2O)c2ncnc(N)c12` [Compound I-19, {(2R,3S,4R,5R)-5-[4-amino-3-(methoxymethyl)-1H-pyrazolo[3,4-d]pyrimidin-1-yl]-3,4-dihydroxytetrahydrofuran-2-yl}methyl Sulfamate], the IC50 is 0.1 to 0.5 µM and the inhibition at 0.123 µM was 32%.
For `Nc1ncnc2c1c(SCC1CC1(F)F)nn2[C@@H]1O[C@H](COS(N)(=O)=O)[C@@H](O)[C@@H]1F` (mixture of isomers) [Compound I-131, {(2R,3R,4S,5R)-5-[4-amino-3-({[(1R)-2,2-difluorocyclopropyl]methyl}sulfanyl)-1H-pyrazolo[3,4-d]pyrimidin-1-yl]-4-fluoro-3-hydroxytetrahydrofuran-2-yl}methyl sulfamate and {(2R,3R,4S,5R)-5-[4-amino-3-({[(1S)-2,2-difluorocyclopropyl]methyl}sulfanyl)-1H-pyrazolo[3,4-d]pyrimidin-1-yl]-4-fluoro-3-hydroxytetrahydrofuran-2-yl}methyl sulfamate], the 50% inhibitory concentration (IC50) fell in the range of 0.02 to 0.05 µM and the inhibition at 0.111 µM came to 76%.
The matching figures for `COc1ccc(Sc2nn([C@H]3C[C@H](O)[C@@H](COS(N)(=O)=O)O3)c3ncnc(N)c23)cc1OC` [Compound I-207, [(2R,3S,5R)-5-{4-amino-3-[(3,4-dimethoxyphenyl)sulfanyl]-1H-pyrazolo[3,4-d]pyrimidin-1-yl}-3-hydroxytetrahydrofuran-2-yl]methyl sulfamate]: 0.05 to 0.1 µM and 65%.
As to `Nc1ncnc2c1c(OCCCl)nn2[C@@H]1O[C@H](COS(N)(=O)=O)[C@@H](O)[C@H]1O` [Compound I-75, {(2R,3S,4R,5R)-5-[4-amino-3-(2-chloroethoxy)-1H-pyrazolo[3,4-d]pyrimidin-1-yl]-3,4-dihydroxytetrahydrofuran-2-yl}methyl Sulfamate], the concentration for half-maximal inhibition (IC50) was 0.1 to 0.5 µM and the inhibition at 0.123 µM is 41%.
As for `CSc1nn([C@@H]2O[C@@H](COS(N)(=O)=O)[C@@H](O)[C@H]2O)c2ncnc(N)c12` [Compound I-94, {(2S,3S,4R,5R)-5-[4-amino-3-(methylsulfanyl)-1H-pyrazolo[3,4-d]pyrimidin-1-yl]-3,4-dihydroxytetrahydrofuran-2-yl}methyl Sulfamate], the IC50 fell in the range of 0.1 to 0.5 µM and the inhibition at 0.111 µM worked out at 28%.
Turning to `CSc1nn([C@@H]2O[C@H](COS(N)(=O)=O)[C@@H](O)[C@@H]2F)c2ncnc(N)c12` [Compound I-115, {(2R,3R,4S,5R)-5-[4-amino-3-(methylsulfanyl)-1H-pyrazolo[3,4-d]pyrimidin-1-yl]-4-fluoro-3-hydroxytetrahydrofuran-2-yl}methyl Sulfamate], the half-maximal inhibitory concentration (IC50) was 0.02 to 0.05 µM and the inhibition at 0.123 µM was determined as 73%.
